Source: patent EP4592286A1, “MACROCYCLIC NITROGEN-CONTAINING CROWN ETHER COMPOUND AND USE THEREOF AS PROTEIN KINASE INHIBITOR” (Artivila Biopharma, priority 2022, dated 2024)

Columns and labels:
Type in all cases: biochemical
[1] = target: CDK9 (Homo sapiens, UniProt P50750); test: experiment of inhibiting kinase activity (Caliper mobility shift assay), CDK9; conditions: for inhibition at 0.01 µM: at 10 nM; for inhibition at 0.01 µM / inhibition at 0.1 µM: read-out: inhibition rate CDK9; for inhibition at 0.1 µM: at 100 nM
Description: (§1) The inhibition rates of tested compounds on JAK1, JAK2, JAK3, TYK2, CDK7, CDK9, EGFR (T790M) and LRRK2 kinases were measured. The test concentrations of the compounds were 10 nM and 100 nM, and the detection was performed by replicate wells. Alternatively, compounds were 3-fold serial diluted from 10 µM for 10 concentrations in replicate wells.
(§2) The inhibitory effects of the compounds on JAK1, JAK2, JAK3, CDK7 and CDK9 kinases were detected by the method of Caliper mobility shift assay. 250 nL of the compound at 100-fold final concentration was transferred to a destination plate 384-well-plate by using a liquid handler Echo 550. A kinase solution at 2.5-fold final concentration was prepared with 1×kinase buffer. 10 µL of the kinase solution with 2.5-fold final concentration was added to compound wells and positive control wells; and 10 µL of 1×kinase buffer was added to negative control wells. The mixture was centrifuged at 1000 rpm for 30 seconds and then incubated at room temperature for 10 minutes. A mixed solution of ATP and kinase substrate at 5/3-fold final concentration was prepared with 1×kinase buffer, and 15 µL of the mixed solution of ATP and substrate at 5/3-fold final concentration was added to start the reaction. The 384-well plate was centrifuged at 1000 rpm for 30 seconds, shaked and mixed evenly, then incubated at room temperature for a corresponding time. 30 µL of stop solution was added to stop the kinase reaction, the mixture was centrifuged at 1000 rpm for 30 seconds, and shaked and mixed evenly. The conversion rate was read by Caliper EZ Reader. The conversion inhibition rate%=(average positive control conversion rate%-sample conversion rate%)/(average positive control conversion rate%-average negative control conversion rate%). Where negative control wells represent the conversion readings of the background well of kinase buffer; and positive control wells represent the conversion readings of wells without compound inhibition. With the log value of concentration as the x axis and the percentage inhibition rate as the y axis, the dose-response curve was fitted by the log (inhibitor) vs. response-variable slope of the analyzing softwar GraphPad Prism 5, and the IC50 values of each compound on enzyme activity were obtained. Calculation formula is as follows: y=Bottom+(Top-Bottom)/(1+10^((LogIC50-x)×hillslope)), where x is logarithm of inhibitor concentration; and Y is % inhibition rate.

[2] = target: CDK7 (Homo sapiens, UniProt P50613); test: experiment of inhibiting kinase activity (Caliper mobility shift assay), CDK7; conditions: for inhibition at 0.1 µM: at 100 nM; for IC50: kinase activity assay, Table 3
Description: as §1, §2

[3] = target: LRRK2 (Homo sapiens, UniProt Q5S007); test: experiment of inhibiting kinase activity, LRRK2; conditions: for inhibition at 0.01 µM: at 10 nM; for inhibition at 0.01 µM / inhibition at 0.1 µM: read-out: inhibition rate LRRK2; for inhibition at 0.1 µM: at 100 nM; for IC50: kinase activity assay, Table 3
Description: as §1

[4] = target: TYK2 (Homo sapiens, UniProt P29597); test: experiment of inhibiting kinase activity, TYK2; conditions: read-out: inhibition rate TYK2; for inhibition at 0.1 µM: at 100 nM; for inhibition at 0.01 µM: at 10 nM
Description: as §1

[5] = target: T1, JAK3 (Homo sapiens, UniProt P52333); test: experiment of inhibiting kinase activity (Caliper mobility shift assay), JAK3; conditions: for inhibition at 0.01 µM: at 10 nM; for inhibition at 0.01 µM / inhibition at 0.1 µM: read-out: inhibition rate JAK3; for inhibition at 0.1 µM: at 100 nM; for IC50: kinase activity assay, Table 3
T1 sequence (P52333 1-1124): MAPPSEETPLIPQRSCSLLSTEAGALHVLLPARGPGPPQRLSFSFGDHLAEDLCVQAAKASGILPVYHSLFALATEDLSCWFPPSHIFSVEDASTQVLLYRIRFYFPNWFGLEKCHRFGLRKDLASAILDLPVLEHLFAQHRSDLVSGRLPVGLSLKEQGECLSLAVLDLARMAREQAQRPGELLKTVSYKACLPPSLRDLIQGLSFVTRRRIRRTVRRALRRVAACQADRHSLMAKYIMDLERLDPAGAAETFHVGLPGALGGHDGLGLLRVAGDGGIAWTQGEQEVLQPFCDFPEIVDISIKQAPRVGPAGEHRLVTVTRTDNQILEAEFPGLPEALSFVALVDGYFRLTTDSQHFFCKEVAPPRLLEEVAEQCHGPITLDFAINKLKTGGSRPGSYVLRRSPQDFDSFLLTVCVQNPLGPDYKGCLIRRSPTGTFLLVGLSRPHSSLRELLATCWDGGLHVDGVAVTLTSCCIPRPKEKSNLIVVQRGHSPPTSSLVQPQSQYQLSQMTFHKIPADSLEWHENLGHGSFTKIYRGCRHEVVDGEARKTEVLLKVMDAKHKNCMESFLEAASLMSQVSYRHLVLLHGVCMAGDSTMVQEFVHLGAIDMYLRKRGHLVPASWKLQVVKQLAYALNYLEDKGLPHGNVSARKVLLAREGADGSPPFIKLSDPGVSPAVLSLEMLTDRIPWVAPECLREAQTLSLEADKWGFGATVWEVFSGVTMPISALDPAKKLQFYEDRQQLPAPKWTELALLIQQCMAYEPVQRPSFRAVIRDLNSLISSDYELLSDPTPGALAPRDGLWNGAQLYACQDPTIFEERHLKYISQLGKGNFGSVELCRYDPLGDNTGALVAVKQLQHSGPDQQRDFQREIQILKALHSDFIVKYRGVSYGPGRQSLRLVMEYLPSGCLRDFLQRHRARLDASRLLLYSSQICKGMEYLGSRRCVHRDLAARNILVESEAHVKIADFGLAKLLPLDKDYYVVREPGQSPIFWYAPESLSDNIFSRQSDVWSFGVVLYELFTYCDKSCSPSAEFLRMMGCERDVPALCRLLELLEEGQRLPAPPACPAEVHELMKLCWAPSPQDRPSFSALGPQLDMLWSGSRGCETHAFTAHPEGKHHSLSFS
How it was run: (§3)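 Read-out was Caliper mobility shift of substrate conversion, normalized to no-inhibitor and buffer-only wells, with IC50 from a variable-slope log(inhibitor) curve. Enzyme was exposed to compound (10-point 3-fold series from 10 µM, or single 10/100 nM) 10 min at room temperature before ATP/substrate addition.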

[6] = target: JAK2 (Homo sapiens, UniProt O60674); test: experiment of inhibiting kinase activity (Caliper mobility shift assay), JAK2; conditions: for inhibition at 0.01 µM: at 10 nM; for inhibition at 0.01 µM / inhibition at 0.1 µM: read-out: inhibition rate JAK2; for inhibition at 0.1 µM: at 100 nM; for IC50: kinase activity assay, Table 3
How it was run: as §3

[7] = target: JAK1 (Homo sapiens, UniProt P23458); test: experiment of inhibiting kinase activity (Caliper mobility shift assay), JAK1; conditions: for inhibition at 0.1 µM: at 100 nM, read-out: inhibition rate JAK1; for IC50: kinase activity assay, Table 3
Description: as §1, §2

Sequence of LRRK2 (Q5S007 whole entry): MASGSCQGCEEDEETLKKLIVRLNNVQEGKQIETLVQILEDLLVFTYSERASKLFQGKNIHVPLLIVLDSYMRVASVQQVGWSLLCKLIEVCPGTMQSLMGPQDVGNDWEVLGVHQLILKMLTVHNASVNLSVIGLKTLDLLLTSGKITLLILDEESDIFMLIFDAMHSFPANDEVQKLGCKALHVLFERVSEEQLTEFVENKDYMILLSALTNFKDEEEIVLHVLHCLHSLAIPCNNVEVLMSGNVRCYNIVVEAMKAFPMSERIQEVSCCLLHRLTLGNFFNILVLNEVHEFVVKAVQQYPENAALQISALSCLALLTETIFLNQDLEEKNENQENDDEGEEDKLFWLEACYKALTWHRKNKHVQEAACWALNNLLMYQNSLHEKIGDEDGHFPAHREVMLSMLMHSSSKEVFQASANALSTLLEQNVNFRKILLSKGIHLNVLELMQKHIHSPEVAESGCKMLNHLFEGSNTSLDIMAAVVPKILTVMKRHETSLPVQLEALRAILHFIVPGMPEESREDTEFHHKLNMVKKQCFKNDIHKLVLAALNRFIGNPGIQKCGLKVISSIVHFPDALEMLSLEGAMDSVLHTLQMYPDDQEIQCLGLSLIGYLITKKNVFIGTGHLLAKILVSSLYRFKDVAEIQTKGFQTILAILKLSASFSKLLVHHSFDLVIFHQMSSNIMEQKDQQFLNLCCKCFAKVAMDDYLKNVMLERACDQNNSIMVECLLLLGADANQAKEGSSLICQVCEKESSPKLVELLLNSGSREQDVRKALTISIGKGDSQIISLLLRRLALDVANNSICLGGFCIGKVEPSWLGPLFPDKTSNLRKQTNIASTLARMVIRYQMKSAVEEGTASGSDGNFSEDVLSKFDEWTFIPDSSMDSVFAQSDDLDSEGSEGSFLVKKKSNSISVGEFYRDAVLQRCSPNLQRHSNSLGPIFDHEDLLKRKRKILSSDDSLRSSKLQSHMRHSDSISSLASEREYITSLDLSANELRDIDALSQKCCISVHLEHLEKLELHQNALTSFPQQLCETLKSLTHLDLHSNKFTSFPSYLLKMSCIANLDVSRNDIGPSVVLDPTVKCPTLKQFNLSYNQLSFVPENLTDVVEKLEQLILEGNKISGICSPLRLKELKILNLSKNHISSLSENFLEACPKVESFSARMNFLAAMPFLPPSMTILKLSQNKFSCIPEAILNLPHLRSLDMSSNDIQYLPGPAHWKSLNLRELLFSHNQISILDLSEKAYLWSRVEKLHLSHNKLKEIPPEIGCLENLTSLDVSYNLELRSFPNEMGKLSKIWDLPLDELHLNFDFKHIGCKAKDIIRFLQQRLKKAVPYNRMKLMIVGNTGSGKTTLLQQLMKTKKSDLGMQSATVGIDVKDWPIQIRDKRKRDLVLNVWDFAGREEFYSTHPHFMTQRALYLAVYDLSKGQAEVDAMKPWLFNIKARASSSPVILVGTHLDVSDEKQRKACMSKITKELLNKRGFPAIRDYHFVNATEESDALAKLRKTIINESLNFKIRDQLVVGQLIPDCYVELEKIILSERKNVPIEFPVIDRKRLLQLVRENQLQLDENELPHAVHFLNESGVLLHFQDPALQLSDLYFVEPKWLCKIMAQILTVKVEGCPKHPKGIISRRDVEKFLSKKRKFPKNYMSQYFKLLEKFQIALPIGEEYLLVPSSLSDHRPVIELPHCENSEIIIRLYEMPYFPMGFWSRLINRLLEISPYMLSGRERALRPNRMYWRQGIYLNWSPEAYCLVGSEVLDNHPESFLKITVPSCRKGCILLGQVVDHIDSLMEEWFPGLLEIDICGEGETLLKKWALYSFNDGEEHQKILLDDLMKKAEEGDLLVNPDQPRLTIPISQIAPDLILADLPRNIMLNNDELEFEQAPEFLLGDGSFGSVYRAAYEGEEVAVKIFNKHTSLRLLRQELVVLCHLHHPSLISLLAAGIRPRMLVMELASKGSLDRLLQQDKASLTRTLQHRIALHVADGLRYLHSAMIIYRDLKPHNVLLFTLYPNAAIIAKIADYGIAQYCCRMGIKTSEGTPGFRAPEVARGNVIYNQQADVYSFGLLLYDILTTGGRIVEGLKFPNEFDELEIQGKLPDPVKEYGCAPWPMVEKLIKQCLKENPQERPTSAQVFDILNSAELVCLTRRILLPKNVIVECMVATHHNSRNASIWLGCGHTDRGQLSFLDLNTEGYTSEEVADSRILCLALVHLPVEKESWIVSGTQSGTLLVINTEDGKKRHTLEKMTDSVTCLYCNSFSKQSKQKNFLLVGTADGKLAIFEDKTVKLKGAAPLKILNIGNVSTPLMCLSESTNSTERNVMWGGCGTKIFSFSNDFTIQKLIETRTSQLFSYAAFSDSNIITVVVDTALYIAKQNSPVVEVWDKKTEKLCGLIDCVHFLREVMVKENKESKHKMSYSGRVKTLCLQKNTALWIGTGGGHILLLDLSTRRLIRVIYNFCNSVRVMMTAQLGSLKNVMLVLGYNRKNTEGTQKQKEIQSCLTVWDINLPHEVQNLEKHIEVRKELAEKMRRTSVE
Sequence of CDK9 (P50750 whole entry): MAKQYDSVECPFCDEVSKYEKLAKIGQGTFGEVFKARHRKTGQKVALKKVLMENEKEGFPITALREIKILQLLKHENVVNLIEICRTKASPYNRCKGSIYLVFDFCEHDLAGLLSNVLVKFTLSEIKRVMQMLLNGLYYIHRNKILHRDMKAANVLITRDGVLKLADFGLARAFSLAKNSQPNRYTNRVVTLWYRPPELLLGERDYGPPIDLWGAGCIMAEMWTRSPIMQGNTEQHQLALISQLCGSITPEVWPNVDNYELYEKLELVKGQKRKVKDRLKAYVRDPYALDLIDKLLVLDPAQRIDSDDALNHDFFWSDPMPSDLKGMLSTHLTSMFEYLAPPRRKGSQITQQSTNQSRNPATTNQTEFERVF
Sequence of CDK9 (O60563 whole entry partner): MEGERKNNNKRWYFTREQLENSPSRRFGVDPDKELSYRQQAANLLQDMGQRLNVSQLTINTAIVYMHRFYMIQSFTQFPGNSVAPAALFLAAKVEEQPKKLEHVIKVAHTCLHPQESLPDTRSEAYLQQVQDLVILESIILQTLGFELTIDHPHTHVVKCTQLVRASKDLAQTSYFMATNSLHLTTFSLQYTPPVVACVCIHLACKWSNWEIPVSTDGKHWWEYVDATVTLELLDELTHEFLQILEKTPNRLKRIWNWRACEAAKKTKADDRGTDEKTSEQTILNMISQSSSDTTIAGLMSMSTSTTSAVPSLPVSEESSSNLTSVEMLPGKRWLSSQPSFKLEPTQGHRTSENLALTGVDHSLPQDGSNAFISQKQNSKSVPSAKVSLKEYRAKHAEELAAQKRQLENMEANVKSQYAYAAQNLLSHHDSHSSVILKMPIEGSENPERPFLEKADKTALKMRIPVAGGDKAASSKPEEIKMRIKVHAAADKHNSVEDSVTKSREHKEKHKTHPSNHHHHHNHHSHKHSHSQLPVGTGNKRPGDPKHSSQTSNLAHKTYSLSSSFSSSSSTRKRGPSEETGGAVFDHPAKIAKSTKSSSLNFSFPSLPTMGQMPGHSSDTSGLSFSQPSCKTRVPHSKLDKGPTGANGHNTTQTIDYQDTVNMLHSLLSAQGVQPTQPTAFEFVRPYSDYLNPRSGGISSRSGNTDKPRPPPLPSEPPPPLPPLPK
Sequence of JAK2 (O60674 whole entry): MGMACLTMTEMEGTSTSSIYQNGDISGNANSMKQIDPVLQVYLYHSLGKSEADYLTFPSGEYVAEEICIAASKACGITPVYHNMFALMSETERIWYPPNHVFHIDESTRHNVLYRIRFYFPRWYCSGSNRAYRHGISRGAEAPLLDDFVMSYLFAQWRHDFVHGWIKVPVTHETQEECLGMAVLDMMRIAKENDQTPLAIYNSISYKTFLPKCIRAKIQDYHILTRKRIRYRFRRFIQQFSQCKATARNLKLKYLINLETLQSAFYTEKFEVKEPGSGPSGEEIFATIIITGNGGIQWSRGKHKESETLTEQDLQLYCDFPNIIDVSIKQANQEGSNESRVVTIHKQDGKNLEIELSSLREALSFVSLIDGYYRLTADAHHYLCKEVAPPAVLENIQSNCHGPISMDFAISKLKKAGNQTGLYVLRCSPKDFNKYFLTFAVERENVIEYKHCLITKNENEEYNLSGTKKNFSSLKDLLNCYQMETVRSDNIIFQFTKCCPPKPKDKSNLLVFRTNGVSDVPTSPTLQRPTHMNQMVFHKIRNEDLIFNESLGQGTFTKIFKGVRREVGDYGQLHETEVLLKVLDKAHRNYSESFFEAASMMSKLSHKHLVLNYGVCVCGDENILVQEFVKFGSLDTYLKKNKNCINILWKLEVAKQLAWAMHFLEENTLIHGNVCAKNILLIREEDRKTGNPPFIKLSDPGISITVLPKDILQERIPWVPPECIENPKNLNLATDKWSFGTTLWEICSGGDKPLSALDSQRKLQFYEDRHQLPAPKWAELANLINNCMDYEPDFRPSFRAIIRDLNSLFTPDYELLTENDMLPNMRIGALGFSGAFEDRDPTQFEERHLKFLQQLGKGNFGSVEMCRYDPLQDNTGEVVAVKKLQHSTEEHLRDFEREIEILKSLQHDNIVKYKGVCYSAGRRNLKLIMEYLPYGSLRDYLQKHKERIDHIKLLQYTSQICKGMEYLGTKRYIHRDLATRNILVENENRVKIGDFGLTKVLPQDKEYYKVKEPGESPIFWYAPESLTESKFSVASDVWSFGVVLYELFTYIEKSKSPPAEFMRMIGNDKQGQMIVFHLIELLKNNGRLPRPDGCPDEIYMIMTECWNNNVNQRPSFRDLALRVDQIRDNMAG

Row | SMILES | inhibition at 0.01 µM [1] [%] | IC50 ([1]; kinase activity assay, Table 3) [nM] | inhibition at 0.1 µM ([2]; read-out: inhibition rate CDK7) [%] | inhibition at 0.01 µM [3] [%] | inhibition at 0.1 µM [3] [%] | inhibition at 0.1 µM [4] [%] | inhibition at 0.01 µM [5] [%] | inhibition at 0.1 µM [5] [%] | inhibition at 0.01 µM [6] [%] | inhibition at 0.1 µM [6] [%] | inhibition at 0.1 µM [1] [%] | IC50 [3] [nM] | inhibition at 0.01 µM ([2]; at 10 nM, read-out: inhibition rate CDK7) [%] | IC50 [2] [nM] | inhibition at 0.1 µM [7] [%] | IC50 [7] [nM] | IC50 [5] [nM] | IC50 [6] [nM] | inhibition at 0.01 µM [4] [%]
1 | Cc1nc2c(F)cc(-c3nc(Nc4ccc5c(c4)OCCOCCN(C)CCO5)nc4[nH]ccc34)cc2n1C(C)C [Example 31, N-(4-(4-fluoro-1-isopropyl-2-methyl-1H-benzo[d]imidazol-6-yl)-7H-pyrrolo[2,3-d]pyrimidin-2-yl)-7-methyl-2,3,6,7,8,9-hexahydro-5H-benzo[b][1,4,7]trioxa[10] azacyclododecan-13-amine] | 25 to 39 |  | 40 to 79 | 40 to 79 | > 80 | 40 to 79 | 40 to 79 | > 80 | 40 to 79 | > 80 | 40 to 79 |  |  |  |  |  |  |  | 
2 | CC(C)S(=O)(=O)c1ccccc1Nc1nc(Nc2ccc3c(c2)OCCN(C)CCO3)nc2[nH]ccc12 [Example 35, N^4-(2-(isopropylsulfonyl)phenyl)-N^2-(4-methyl-3,4,5,6-tetrahydro-2H-benzo[b][1,4, 7]dioxazolin-9-yl)-7H-pyrrolo[2,3-d]pyrimidin-2,4-diamine] |  |  | 40 to 79 | > 80 | > 80 | 40 to 79 | 25 to 39 | > 80 | 40 to 79 | > 80 |  | < 50 |  | < 50 | 40 to 79 | 50 to 200 | < 50 | < 50 | 
3 | CN1CCOc2ccc(Nc3ncc(F)c(-c4ccc(C(=O)NCC#N)cc4)n3)cc2OCC1 [Example 15, N-(Cyanomethyl)-4-(5-fluoro-2-((4-methyl-3,4,5,6-tetrahydro-2H-benzo[b][1,4,7]dioxazolin-9-yl)amino)pyrimidin-4-yl)benzamide] |  |  |  |  | 40 to 79 | > 80 |  |  | 40 to 79 | > 80 | 40 to 79 | 50 to 200 |  |  | 40 to 79 | < 50 | < 50 | < 50 | 25 to 39
4 | CN1CCOc2ccc(Nc3ncc(F)c(-c4cnn(C(CC#N)C5CCCC5)c4)n3)cc2OCC1 (centres unmarked) [Example 25] |  |  | 40 to 79 |  | 40 to 79 | > 80 |  | 40 to 79 | 40 to 79 | > 80 |  | 50 to 200 |  |  | 40 to 79 |  | < 50 | < 50 | 40 to 79
5 | CN1CCOCCOc2ccc(Nc3nc(Nc4cccc(S(=O)(=O)NC(C)(C)C)c4)c4cc[nH]c4n3)cc2OCC1 [Example 19, N-(tert-butyl)-3-((2-((7-methyl-2,3,6,7,8,9-hexahydro-5H-benzo[b][1,4,7]trioxa[10]azacyclododecan-12-yl)amino)-7H-pyrrolo[2,3-d]pyrimidin-4-yl)amino)benzenesulfonamide] |  |  | 40 to 79 | 40 to 79 | > 80 | 25 to 39 |  | 40 to 79 | 40 to 79 | > 80 |  | < 50 |  | < 50 |  |  |  | < 50 | 
6 | CN1CCOCCOc2cc(Nc3nc(Nc4cccc(S(=O)(=O)NC(C)(C)C)c4)c4cc[nH]c4n3)ccc2OCC1 [Example 20, N-(tert-butyl)-3-((2-((7-methyl-2,3,6,7,8,9-hexahydro-5H-benzo[b][1,4,7]trioxa[10]azacyclododecan-13-yl)amino)-7H-pyrrolo[2,3-d]pyrimidin-4-yl)amino)benzenesulfonamide] |  |  | 40 to 79 |  | 40 to 79 | 25 to 39 |  | 40 to 79 |  | > 80 |  |  |  |  |  |  |  |  | 

Next, values leading:

Row | inhibition at 0.01 µM [1] [%] | IC50 ([1]; kinase activity assay, Table 3) [nM] | inhibition at 0.1 µM ([2]; read-out: inhibition rate CDK7) [%] | inhibition at 0.01 µM [3] [%] | inhibition at 0.1 µM [3] [%] | inhibition at 0.1 µM [4] [%] | inhibition at 0.01 µM [5] [%] | inhibition at 0.1 µM [5] [%] | inhibition at 0.01 µM [6] [%] | inhibition at 0.1 µM [6] [%] | inhibition at 0.1 µM [1] [%] | IC50 [3] [nM] | inhibition at 0.01 µM ([2]; at 10 nM, read-out: inhibition rate CDK7) [%] | IC50 [2] [nM] | inhibition at 0.1 µM [7] [%] | IC50 [7] [nM] | IC50 [5] [nM] | IC50 [6] [nM] | inhibition at 0.01 µM [4] [%] | SMILES
7 | 40 to 79 | < 50 |  |  |  |  |  |  |  |  |  |  |  |  |  |  |  |  |  | COc1ccc(F)cc1-c1nc(Nc2ccc3c(c2)OCCOCCN(C)CCO3)ncc1F [Example 115, N-(5-fluoro-4-(5-fluoro-2-methoxyphenyl)pyrimidin-2-yl)-7-methyl-2,3,6,7,8,9-hexahydro-5H-benzo[b][1,4,7]trioxa[10]azacyclododecan-13-amine]
8 |  |  |  |  |  |  |  |  |  |  | > 80 | < 50 |  |  |  |  |  |  |  | CN1CCOc2ccc(Nc3nc(NCCP(C)(C)=O)c4cc[nH]c4n3)cc2OCC1 [Example 85, dimethyl(2-((2-((4-methyl-3,4,5,6-tetrahydro-2H-benzo[b][1,4,7]dioxazolin-9-yl)amino)-7H-pyrrolo[2,3-d]pyrimidin-4-yl)amino)ethyl)phosphine oxide]
9 |  |  | > 80 | 40 to 79 | > 80 | 40 to 79 | 40 to 79 | > 80 | 40 to 79 | > 80 | 40 to 79 |  | > 80 |  |  |  |  |  |  | CC(C)S(=O)(=O)c1ccccc1Nc1nc(Nc2ccc3c(c2)OCCOCCN(C)CCO3)nc2[nH]cnc12 [Example 60, N^6-(2-(isopropylsulfonyl)phenyl)-N^2-(7-methyl-2,3,6,7,8,9-hexahydro-5H-benzo[b][1,4,7]trioxa[10]azacyclododecan-13-yl)-9H-purin-2,6-diamine]
10 |  |  | 25 to 39 |  | 25 to 39 | > 80 | 40 to 79 | > 80 | 40 to 79 | > 80 |  |  |  |  | 40 to 79 |  | < 50 | < 50 | 40 to 79 | CCS(=O)(=O)N1CC(CC#N)(n2cc(-c3nc(Nc4ccc5c(c4)OCCN(C)CCO5)ncc3F)cn2)C1 [Example 37, 2-(1-(ethylsulfonyl)-3-(4-(5-fluoro-2-((4-methyl-3,4,5,6-tetrahydro-2H-benzo[b] [1,4,7]dioxazolin-9-yl)amino)pyrimidin-4-yl)-1H-pyrazol-1-yl)azetidin-3-yl)acetonitrile]
